Test results as given in ChEMBL document CHEMBL3632530, “Synthesis and structure-activity relationship study of benzofuran-based chalconoids bearing benzylpyridinium moiety as potent acetylcholinesterase inhibitors” (Eur J Med Chem, 2015).

The compounds below were run against Acetylcholinesterase (Torpedo californica, UniProt P04058) (assay: Inhibition of Torpedo californica AChE (type VI-S) using acetylthiocholine iodide as substrate assessed as 5-thio-2-nitrobenzoate anion formation preincubated for 15 mins followed by substrate addition).
Chain of Acetylcholinesterase (P04058 whole entry): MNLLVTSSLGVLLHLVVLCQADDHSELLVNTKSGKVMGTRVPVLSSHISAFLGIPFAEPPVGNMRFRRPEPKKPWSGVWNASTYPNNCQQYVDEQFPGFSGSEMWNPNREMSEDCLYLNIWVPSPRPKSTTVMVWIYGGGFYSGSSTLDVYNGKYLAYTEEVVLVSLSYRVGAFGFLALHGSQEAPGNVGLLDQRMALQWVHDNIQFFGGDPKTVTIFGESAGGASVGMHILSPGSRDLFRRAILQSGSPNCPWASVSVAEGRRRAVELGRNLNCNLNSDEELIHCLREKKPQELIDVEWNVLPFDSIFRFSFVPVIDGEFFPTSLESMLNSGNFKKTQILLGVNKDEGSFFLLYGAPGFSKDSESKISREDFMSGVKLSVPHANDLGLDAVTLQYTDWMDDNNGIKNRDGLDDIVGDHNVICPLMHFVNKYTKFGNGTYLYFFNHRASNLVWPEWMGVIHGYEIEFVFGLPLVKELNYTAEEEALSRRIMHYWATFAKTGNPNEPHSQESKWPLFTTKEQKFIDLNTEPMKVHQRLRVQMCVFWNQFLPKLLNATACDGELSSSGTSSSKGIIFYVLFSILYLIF
Design: species or system Tetronarce californica

Row | Compound | IC50 [nM]
1 | O=C(/C=C/c1cc[n+](Cc2ccccc2)cc1)c1cc2cc(Br)ccc2o1 | 5960
2 | O=C(/C=C/c1ccc[n+](Cc2ccccc2Br)c1)c1cc2ccccc2o1 | 35
3 | O=C(/C=C/c1cc[n+](Cc2ccccc2)cc1)c1cc2ccccc2o1 | 64
4 | COc1cccc2cc(C(=O)/C=C/c3ccc[n+](Cc4ccc(Cl)cc4)c3)oc12 | 11200
5 | COc1cccc2cc(C(=O)/C=C/c3ccc[n+](Cc4ccccc4Br)c3)oc12 | 27
6 | O=C(/C=C/c1ccc[n+](Cc2ccc(Cl)c(Cl)c2)c1)c1cc2cc(Br)ccc2o1 | 786
7 | O=C(/C=C/c1ccc[n+](Cc2ccc([N+](=O)[O-])cc2)c1)c1cc2ccccc2o1 | 29200
8 | O=C(/C=C/c1cc[n+](Cc2cccc(Cl)c2Cl)cc1)c1cc2ccccc2o1 | 3120
9 | COc1cccc2cc(C(=O)/C=C/c3ccc[n+](Cc4cccc(Cl)c4Cl)c3)oc12 | 985
10 | O=C(/C=C/c1cc[n+](Cc2ccccc2Br)cc1)c1cc2ccccc2o1 | 41
11 | O=C(/C=C/c1ccc[n+](Cc2ccc(Br)cc2)c1)c1cc2ccccc2o1 | 357
12 | O=C(/C=C/c1ccc[n+](Cc2ccc(Br)cc2)c1)c1cc2cc(Br)ccc2o1 | 31000
13 | O=C(/C=C/c1ccc[n+](Cc2cccc(Cl)c2Cl)c1)c1cc2cc(Br)ccc2o1 | 2850
14 | COc1cccc2cc(C(=O)/C=C/c3ccc[n+](Cc4ccccc4)c3)oc12 | 3890
15 | COc1cccc2cc(C(=O)/C=C/c3ccc[n+](Cc4ccc(Br)cc4)c3)oc12 | 10700
16 | O=C(/C=C/c1ccc[n+](Cc2ccccc2)c1)c1cc2ccccc2o1 | 58
17 | O=C(/C=C/c1ccc[n+](Cc2ccccc2)c1)c1cc2cc(Br)ccc2o1 | 5410
18 | O=C(/C=C/c1ccc[n+](Cc2ccccc2Br)c1)c1cc2cc(Br)ccc2o1 | 2150
